{"source": "patent US8192962B2", "about": "“Processes for detecting toxic substances” (Daikin Industries, Ltd., priority 2001, dated 2012)", "test_system": "DNA repair protein genes", "assay": "DNA chip mRNA expression in yeast, DNA repair protein genes (Table 3)", "assay_type": "cell-based, Saccharomyces cerevisiae S288C", "details": "incubated two hours, concentrations as in the 1st table", "outline": "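S. cerevisiae S288C grown at 25° C in YPD were exposed in log phase for two hours to one toxic chemical at a growth-inhibiting, non-lethal concentration; untreated cells served as control. Poly(A) mRNA was reverse-transcribed with Cy3/Cy5-dUTP and hybridized to a whole-genome yeast DNA chip at 65° C for over 12 hours; values are fluorescence ratios versus untreated.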"}
{"molecule": "C[S+](C)[O-]", "note": "[(15), dimethylsulfoxide]", "values": [{"measurement": "The level of expressed mRNA in the presence of chemical substance/The level of expressed mRNA in the absence of chemical substance", "setting": "yeast gene YBR272C", "value": 0.5}, {"measurement": "The level of expressed mRNA in the presence of chemical substance/The level of expressed mRNA in the absence of chemical substance", "setting": "yeast gene YCR014C", "value": 0.7}, {"measurement": "The level of expressed mRNA in the presence of chemical substance/The level of expressed mRNA in the absence of chemical substance", "setting": "yeast gene YDL059C", "value": 0.7}, {"measurement": "The level of expressed mRNA in the presence of chemical substance/The level of expressed mRNA in the absence of chemical substance", "setting": "yeast gene YDR054C", "value": 1.6}, {"measurement": "The level of expressed mRNA in the presence of chemical substance/The level of expressed mRNA in the absence of chemical substance", "setting": "yeast gene YEL037C", "value": 1.6}, {"measurement": "The level of expressed mRNA in the presence of chemical substance/The level of expressed mRNA in the absence of chemical substance", "setting": "yeast gene YGL091C", "value": 0.7}, {"measurement": "The level of expressed mRNA in the presence of chemical substance/The level of expressed mRNA in the absence of chemical substance", "setting": "yeast gene YGL249W", "value": 0.7}, {"measurement": "The level of expressed mRNA in the presence of chemical substance/The level of expressed mRNA in the absence of chemical substance", "setting": "yeast gene YGR180C", "value": 1.3}, {"measurement": "The level of expressed mRNA in the presence of chemical substance/The level of expressed mRNA in the absence of chemical substance", "setting": "yeast gene YIL072W", "value": 1.4}, {"measurement": "The level of expressed mRNA in the presence of chemical substance/The level of expressed mRNA in the absence of chemical substance", "setting": "yeast gene YIL143C", "value": 1.3}, {"measurement": "The level of expressed mRNA in the presence of chemical substance/The level of expressed mRNA in the absence of chemical substance", "setting": "yeast gene YNL250W", "value": 1.3}, {"measurement": "The level of expressed mRNA in the presence of chemical substance/The level of expressed mRNA in the absence of chemical substance", "setting": "yeast gene YNL261W", "value": 0.7}, {"measurement": "The level of expressed mRNA in the presence of chemical substance/The level of expressed mRNA in the absence of chemical substance", "setting": "yeast gene YPL164C", "value": 1.3}]}
{"molecule": "CCCCCCCCCCCCc1ccc(S(=O)(=O)[O-])cc1.[Na+]", "note": "[(17), sodium dodecylbenzosulfonate]", "values": [{"measurement": "The level of expressed mRNA in the presence of chemical substance/The level of expressed mRNA in the absence of chemical substance", "setting": "yeast gene YAL015C", "value": 1.1}, {"measurement": "The level of expressed mRNA in the presence of chemical substance/The level of expressed mRNA in the absence of chemical substance", "setting": "yeast gene YAR007C", "value": 0.8}, {"measurement": "The level of expressed mRNA in the presence of chemical substance/The level of expressed mRNA in the absence of chemical substance", "setting": "yeast gene YBL019W", "value": 0.8}, {"measurement": "The level of expressed mRNA in the presence of chemical substance/The level of expressed mRNA in the absence of chemical substance", "setting": "yeast gene YBR073W", "value": 0.7}, {"measurement": "The level of expressed mRNA in the presence of chemical substance/The level of expressed mRNA in the absence of chemical substance", "setting": "yeast gene YBR272C", "value": 1.1}, {"measurement": "The level of expressed mRNA in the presence of chemical substance/The level of expressed mRNA in the absence of chemical substance", "setting": "yeast gene YCR014C", "value": 1.0}, {"measurement": "The level of expressed mRNA in the presence of chemical substance/The level of expressed mRNA in the absence of chemical substance", "setting": "yeast gene YDL017W", "value": 0.8}, {"measurement": "The level of expressed mRNA in the presence of chemical substance/The level of expressed mRNA in the absence of chemical substance", "setting": "yeast gene YDL059C", "value": 0.8}, {"measurement": "The level of expressed mRNA in the presence of chemical substance/The level of expressed mRNA in the absence of chemical substance", "setting": "yeast gene YDL200C", "value": 0.9}, {"measurement": "The level of expressed mRNA in the presence of chemical substance/The level of expressed mRNA in the absence of chemical substance", "setting": "yeast gene YDR054C", "value": 0.8}, {"measurement": "The level of expressed mRNA in the presence of chemical substance/The level of expressed mRNA in the absence of chemical substance", "setting": "yeast gene YDR369C", "value": 0.8}, {"measurement": "The level of expressed mRNA in the presence of chemical substance/The level of expressed mRNA in the absence of chemical substance", "setting": "yeast gene YEL019C", "value": 0.8}, {"measurement": "The level of expressed mRNA in the presence of chemical substance/The level of expressed mRNA in the absence of chemical substance", "setting": "yeast gene YEL037C", "value": 1.0}, {"measurement": "The level of expressed mRNA in the presence of chemical substance/The level of expressed mRNA in the absence of chemical substance", "setting": "yeast gene YER162C", "value": 1.2}, {"measurement": "The level of expressed mRNA in the presence of chemical substance/The level of expressed mRNA in the absence of chemical substance", "setting": "yeast gene YFL014W", "value": 1.5}, {"measurement": "The level of expressed mRNA in the presence of chemical substance/The level of expressed mRNA in the absence of chemical substance", "setting": "yeast gene YGL058W", "value": 1.1}, {"measurement": "The level of expressed mRNA in the presence of chemical substance/The level of expressed mRNA in the absence of chemical substance", "setting": "yeast gene YGL091C", "value": 1.4}, {"measurement": "The level of expressed mRNA in the presence of chemical substance/The level of expressed mRNA in the absence of chemical substance", "setting": "yeast gene YGL127C", "value": 1.0}, {"measurement": "The level of expressed mRNA in the presence of chemical substance/The level of expressed mRNA in the absence of chemical substance", "setting": "yeast gene YGL163C", "value": 0.9}, {"measurement": "The level of expressed mRNA in the presence of chemical substance/The level of expressed mRNA in the absence of chemical substance", "setting": "yeast gene YGL249W", "value": 1.0}, {"measurement": "The level of expressed mRNA in the presence of chemical substance/The level of expressed mRNA in the absence of chemical substance", "setting": "yeast gene YGR180C", "value": 1.0}, {"measurement": "The level of expressed mRNA in the presence of chemical substance/The level of expressed mRNA in the absence of chemical substance", "setting": "yeast gene YGR231C", "value": 1.0}, {"measurement": "The level of expressed mRNA in the presence of chemical substance/The level of expressed mRNA in the absence of chemical substance", "setting": "yeast gene YGR258C", "value": 1.0}, {"measurement": "The level of expressed mRNA in the presence of chemical substance/The level of expressed mRNA in the absence of chemical substance", "setting": "yeast gene YHR164C", "value": 0.8}, {"measurement": "The level of expressed mRNA in the presence of chemical substance/The level of expressed mRNA in the absence of chemical substance", "setting": "yeast gene YIL036W", "value": 1.1}, {"measurement": "The level of expressed mRNA in the presence of chemical substance/The level of expressed mRNA in the absence of chemical substance", "setting": "yeast gene YIL072W", "value": 1.0}, {"measurement": "The level of expressed mRNA in the presence of chemical substance/The level of expressed mRNA in the absence of chemical substance", "setting": "yeast gene YIL143C", "value": 0.9}, {"measurement": "The level of expressed mRNA in the presence of chemical substance/The level of expressed mRNA in the absence of chemical substance", "setting": "yeast gene YIL153W", "value": 0.9}, {"measurement": "The level of expressed mRNA in the presence of chemical substance/The level of expressed mRNA in the absence of chemical substance", "setting": "yeast gene YIR002C", "value": 1.1}, {"measurement": "The level of expressed mRNA in the presence of chemical substance/The level of expressed mRNA in the absence of chemical substance", "setting": "yeast gene YJL026W", "value": 1.4}, {"measurement": "The level of expressed mRNA in the presence of chemical substance/The level of expressed mRNA in the absence of chemical substance", "setting": "yeast gene YJR046W", "value": 0.7}, {"measurement": "The level of expressed mRNA in the presence of chemical substance/The level of expressed mRNA in the absence of chemical substance", "setting": "yeast gene YJR052W", "value": 1.0}, {"measurement": "The level of expressed mRNA in the presence of chemical substance/The level of expressed mRNA in the absence of chemical substance", "setting": "yeast gene YKL145W", "value": 1.1}, {"measurement": "The level of expressed mRNA in the presence of chemical substance/The level of expressed mRNA in the absence of chemical substance", "setting": "yeast gene YLR103C", "value": 1.1}, {"measurement": "The level of expressed mRNA in the presence of chemical substance/The level of expressed mRNA in the absence of chemical substance", "setting": "yeast gene YLR233C", "value": 1.0}, {"measurement": "The level of expressed mRNA in the presence of chemical substance/The level of expressed mRNA in the absence of chemical substance", "setting": "yeast gene YLR288C", "value": 1.2}, {"measurement": "The level of expressed mRNA in the presence of chemical substance/The level of expressed mRNA in the absence of chemical substance", "setting": "yeast gene YML032C", "value": 1.0}, {"measurement": "The level of expressed mRNA in the presence of chemical substance/The level of expressed mRNA in the absence of chemical substance", "setting": "yeast gene YML058W", "value": 1.3}, {"measurement": "The level of expressed mRNA in the presence of chemical substance/The level of expressed mRNA in the absence of chemical substance", "setting": "yeast gene YMR035W", "value": 2.2}, {"measurement": "The level of expressed mRNA in the presence of chemical substance/The level of expressed mRNA in the absence of chemical substance", "setting": "yeast gene YMR072W", "value": 0.9}, {"measurement": "The level of expressed mRNA in the presence of chemical substance/The level of expressed mRNA in the absence of chemical substance", "setting": "yeast gene YMR096W", "value": 2.2}, {"measurement": "The level of expressed mRNA in the presence of chemical substance/The level of expressed mRNA in the absence of chemical substance", "setting": "yeast gene YMR284W", "value": 1.1}, {"measurement": "The level of expressed mRNA in the presence of chemical substance/The level of expressed mRNA in the absence of chemical substance", "setting": "yeast gene YNL213C", "value": 0.9}, {"measurement": "The level of expressed mRNA in the presence of chemical substance/The level of expressed mRNA in the absence of chemical substance", "setting": "yeast gene YNL250W", "value": 1.0}, {"measurement": "The level of expressed mRNA in the presence of chemical substance/The level of expressed mRNA in the absence of chemical substance", "setting": "yeast gene YNL261W", "value": 0.8}, {"measurement": "The level of expressed mRNA in the presence of chemical substance/The level of expressed mRNA in the absence of chemical substance", "setting": "yeast gene YNL312W", "value": 1.2}, {"measurement": "The level of expressed mRNA in the presence of chemical substance/The level of expressed mRNA in the absence of chemical substance", "setting": "yeast gene YOL043C", "value": 1.0}, {"measurement": "The level of expressed mRNA in the presence of chemical substance/The level of expressed mRNA in the absence of chemical substance", "setting": "yeast gene YOR005C", "value": 1.1}, {"measurement": "The level of expressed mRNA in the presence of chemical substance/The level of expressed mRNA in the absence of chemical substance", "setting": "yeast gene YOR386W", "value": 2.1}, {"measurement": "The level of expressed mRNA in the presence of chemical substance/The level of expressed mRNA in the absence of chemical substance", "setting": "yeast gene YPL022W", "value": 0.9}, {"measurement": "The level of expressed mRNA in the presence of chemical substance/The level of expressed mRNA in the absence of chemical substance", "setting": "yeast gene YPL164C", "value": 1.0}, {"measurement": "The level of expressed mRNA in the presence of chemical substance/The level of expressed mRNA in the absence of chemical substance", "setting": "yeast gene YPL194W", "value": 1.0}, {"measurement": "The level of expressed mRNA in the presence of chemical substance/The level of expressed mRNA in the absence of chemical substance", "setting": "yeast gene YPR025C", "value": 1.1}]}
